pIC50: −log10 of the molar value.
The compounds below were run against Factor D (Homo sapiens (Human), UniProt P00746) (assay: biochemical). Settings: not given.
Type: biochemical

Chain of Factor D (P00746 26-253): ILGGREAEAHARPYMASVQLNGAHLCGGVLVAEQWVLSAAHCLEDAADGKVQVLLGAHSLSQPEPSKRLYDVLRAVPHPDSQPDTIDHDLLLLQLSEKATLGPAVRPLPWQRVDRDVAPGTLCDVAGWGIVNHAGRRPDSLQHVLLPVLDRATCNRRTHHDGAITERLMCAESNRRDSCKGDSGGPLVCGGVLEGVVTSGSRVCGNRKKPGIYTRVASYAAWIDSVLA

SMILES | pIC50
NC(=O)n1cc(NC(=O)N2CC3CC2(C(=O)NCc2cccc(Cl)c2F)C3)c2ccccc21 [Example 136, 2-Aza-bicyclo[2.1.1]hexane-1,2-dicarboxylic acid 2-[(1-carbamoyl-1H-indol-3-yl)-amide] 1-(3-chloro-2-fluoro-benzylamide)] | 4.75

Same assay, conditions: read-out: IC50

SMILES | pIC50
NC(=O)n1cc(NC(=O)N2CCC[C@H]2CNS(=O)(=O)c2cccc(Cl)c2)c2ccccc21 [Example 112, 3-({(S)-2-[(3-Chloro-benzenesulfonylamino)-methyl]-pyrrolidine-1-carbonyl}-amino)-indole-1-carboxylic acid amide] | 6.26
NC(=O)n1cc(NC(=O)N2C[C@H](F)C[C@H]2CNC(=O)Cc2ccccc2)c2ccccc21 [Example 113, 3-{[(2S,4R)-4-Fluoro-2-(phenylacetylamino-methyl)-pyrrolidine-1-carbonyl]-amino}-indole-1-carboxylic acid amide] | 5.94
NC(=O)n1cc(NC(=O)N2C[C@H](F)C[C@H]2CNCc2cccc(Cl)c2F)c2ccccc21 [Example 116, 3-({(2S,4R)-2-[(3-Chloro-2-fluoro-benzylamino)-methyl]-4-fluoro-pyrrolidine-1-carbonyl}-amino)-indole-1-carboxylic acid amide] | 5.94
NC(=O)n1cc(NC(=O)N2CCC[C@H]2CNc2cccc(OC(F)(F)F)c2)c2ccccc21 [Example 117, 3-({(S)-2-[(3-Trifluoromethoxy-phenylamino)-methyl]-pyrrolidine-1-carbonyl}-amino)-indole-1-carboxylic acid amide] | 4.93
NC(=O)c1cn(CC(=O)N2CCC[C@H]2C(=O)Nc2cccc(OC(F)(F)F)c2)c2ccccc12 [Example 118, 1-{2-oxo-2-[(S)-2-(3-trifluoromethoxy-phenylcarbamoyl)-pyrrolidin-1-yl]-ethyl}-1H-indole-3-carboxylic acid amide] | 4.76
CC(=O)n1cc(CC(=O)N2CCC[C@H]2C(=O)Nc2cccc(OC(F)(F)F)c2)c2ccccc21 [Example 119, (S)-1-[2-(1-Acetyl-1H-indol-3-yl)-acetyl]-pyrrolidine-2-carboxylic acid (3-trifluoromethoxy-phenyl)-amide] | 5.32
CC(=O)n1cc(C(N)C(=O)N2C[C@H](F)C[C@H]2C(=O)NCc2cccc(Cl)c2F)c2ccccc21 (stereo partly drawn) [Example 120, (2S,4R)-1-[2-(1-Acetyl-1H-indol-3-yl)-2-amino-acetyl]-4-fluoro-pyrrolidine-2-carboxylic acid 3-chloro-2-fluoro-benzylamide] | 5.49
NC(=O)c1cc(NC(=O)N2CCC[C@H]2C(=O)Nc2cccc(OC(F)(F)F)c2)c2ccccn12 [Example 121, (S)-Pyrrolidine-1,2-dicarboxylic acid 1-[(3-carbamoyl-indolizin-1-yl)-amide]2-[(3-trifluoromethoxy-phenyl)-amide]] | 5.90
NC(=O)c1cc(NC(=O)N2CCC[C@H]2C(=O)Nc2cccc(OC(F)(F)F)c2)n2ccccc12 [Example 123, (S)-Pyrrolidine-1,2-dicarboxylic acid 1-[(1-carbamoyl-indolizin-3-yl)-amide]2-[(3-trifluoromethoxy-phenyl)-amide]] | 5.53
N#C[C@H]1C[C@@H](C(=O)Nc2cccc(OC(F)(F)F)c2)N(C(=O)Nc2cn(C(N)=O)c3ccccc23)C1 [Example 125, (2S,4S)-4-Cyano-pyrrolidine-1,2-dicarboxylic acid 1-[(1-carbamoyl-1H-indol-3-yl)-amide]2-[(3-trifluoromethoxy-phenyl)-amide]] | 5.29
C[C@@H]1CCN(C(=O)Nc2cn(C(N)=O)c3ccccc23)[C@@H]1C(=O)NCc1cccc(Cl)c1F [Example 126, (2S,3R)-3-Methyl-pyrrolidine-1,2-dicarboxylic acid 1-[(1-carbamoyl-1H-indol-3-yl)-amide] 2-(3-chloro-2-fluoro-benzylamide)] | 7.00
CC(C)(C)OC(=O)Cc1ccc2c(NC(=O)N3[C@@H]4C[C@@H]4C[C@H]3C(=O)NCc3cccc(Cl)c3F)cn(C(N)=O)c2c1 [Example 127, (1-Carbamoyl-3-{[(1R,3S,5R)-3-(3-chloro-2-fluoro-benzylcarbamoyl)-2-aza-bicyclo[3.1.0]hexane-2-carbonyl]-amino}-1H-indol-6-yl)-acetic acid tert-butyl ester] | 8.52
CO[C@H]1C[C@@H](C(=O)Nc2cccc(OC(F)(F)F)c2)N(C(=O)Nc2cn(C(N)=O)c3ccccc23)C1 [Example 128, (2S,4S)-4-Methoxy-pyrrolidine-1,2-dicarboxylic acid 1-[(1-carbamoyl-1H-indol-3-yl)-amide] 2-[(3-trifluoromethoxy-phenyl)-amide]] | 5.70
CC(=O)n1cc(NC(=O)N2[C@@H]3C[C@@H]3C[C@H]2C(=O)N[C@H](CO)c2cccc(Cl)c2F)c2ccccc21 [Example 129, (1R,3S,5R)-2-Azabicyclo[3.1.0]hexane-2,3-dicarboxylic acid 2-[(1-acetyl-1H-indol-3-yl)-amide] 3-{[(S)-1-(3-chloro-2-fluoro-phenyl)-2hydroxy-ethyl]-amide}] | 8.40
CNC(=O)n1cc(NC(=O)N2[C@@H]3C[C@@H]3C[C@H]2C(=O)NCc2cccc(Cl)c2F)c2ccccc21 [Example 130, (1R,3S,5R)-2-Azabicyclo[3.1.0]hexane-2,3-dicarboxylic acid 3-(3-chloro-2-fluoro-benzylamide) 2-[(1-methylcarbamoyl-1H-indol-3-yl)-amide]] | 7.27
COCCOc1ccc2c(c1)c(NC(=O)N1C[C@](C)(F)C[C@H]1C(=O)NCc1cccc(Cl)c1F)cn2C(N)=O [Example 132, (2S,4R)-4-Fluoro-methyl-pyrrolidine-1,2-dicarboxylic acid 1-{[1-carbamoyl-5-(2-methoxy-ethoxy)-1H-indol-3-yl]-amide} 2-(3-chloro-2-fluoro-benzylamide)] | 7.74
COC(=O)COc1ccc2c(c1)c(NC(=O)N1[C@@H]3C[C@@H]3C[C@H]1C(=O)NCc1cccc(Cl)c1F)cn2C(N)=O [Example 133, (1-carbamoyl-3-{[(1R,3S,5R)-3-(3-chloro-2-fluoro-benzylcarbamoyl)-2-azabicyclo[3.1.0]hexane-2-carbonyl]amino}-1H-indol-5-yloxy)-acetic acid methyl ester] | 8.22
NC(=O)n1cc(NC(=O)N2CC3CC3[C@H]2C(=O)NCc2cccc(Cl)c2F)c2ccccc21 (stereo partly drawn) [Example 135, (1S,2S,5R)-3-Aza-bicyclo[3.1.0]hexane-2,3-dicarboxylic acid 3-[(1-carbamoyl-1H-indol-3-yl)-amide] 2-(3-chloro-2-fluoro-benzylamide)] | 7.23
NC(=O)n1cc(NC(=O)N2C[C@H](F)C[C@H]2C(=O)NCc2cccc(Br)c2F)c2ccccc21 [Example 138, (2S,4R)-4-Fluoro-pyrrolidine-1,2-dicarboxylic acid 2-(3-bromo-2-fluoro-benzylamide) 1-[(1-carbamoyl-1H-indol-3-yl)-amide]] | 8.05
CC(=O)NC[C@H]1CC[C@@H](C(=O)Nc2cccc(OC(F)(F)F)c2)N1C(=O)Nc1cn(C(N)=O)c2ccccc12 [Example 139, (2S,5R)-5-(Acetylamino-methyl)-pyrrolidine-1,2-dicarboxylic acid 1-[(1-carbamoyl-1H-indol-3-yl)-amide] 2-[(3-trifluoromethoxy-phenyl)-amide]] | 5.82
NC(=O)n1cc(NC(=O)N2C[C@H](F)C[C@H]2C(=O)NCc2cc(C(=O)O)cc(Cl)c2F)c2ccccc21 [Example 144, 3-({[(2S,4R)-1-(1-carbamoyl-1H-indol-3-ylcarbamoyl)-4-fluoro-pyrrolidine-2-carbonyl]-amino}-methyl)-5-chloro-4-fluoro-benzoic acid] | 7.82
NC(=O)n1cc(NC(=O)N2CC=C[C@H]2C(=O)Nc2cccc(OC(F)(F)F)c2)c2ccccc21 [Example 145, (S)-2,5-Dihydro-pyrrole-1,2-dicarboxylic acid 1-[(1-carbamoyl-1H-indol-3-yl)-amide] 2-[(3-trifluoromethoxy-phenyl)-amide]] | 6.52
NC(=O)n1cc(NC(=O)N2CC3O[C@@H]3[C@H]2C(=O)NCc2cccc(Cl)c2F)c2ccccc21 (stereo partly drawn) [Example 146, (1R,2S,5S)-6-Oxa-3-aza-bicyclo[3.1.0]hexane-2,3-dicarboxylic acid 3-[(1-carbamoyl-1H-indol-3-yl)-amide] 2-(3-chloro-2-fluoro-benzylamide)] | 8.05
NC(=O)n1cc(NC(=O)N2C[C@@H](C(F)(F)F)C[C@H]2C(=O)NCc2cccc(Cl)c2F)c2ccccc21 [Example 147, (2S,4S)-4-Trifluoromethyl-pyrrolidine-1,2-dicarboxylic acid 1-[(1-carbamoyl-1H-indol-3-yl)-amide] 2-(3-chloro-2-fluoro-benzylamide)] | 6.92
NC(=O)n1cc(NC(=O)N2CC[C@@H]3C[C@@]32C(=O)NCc2cccc(Cl)c2F)c2ccccc21 [Example 149, (1S,5R)-2-Aza-bicyclo[3.1.0]hexane-1,2-dicarboxylic acid 2-[(1-carbamoyl-1H-indol-3-yl)-amide] 1-(3-chloro-2-fluoro-benzylamide)] | 4.97
CC1(C)SC[C@@H](C(=O)Nc2cccc(OC(F)(F)F)c2)N1C(=O)Nc1cn(C(N)=O)c2ccccc12 [Example 151, (R)-2,2-Dimethyl-thiazolidine-3,4-dicarboxylic acid 3-[(1-carbamoyl-1H-indol-3-yl)-amide] 4-[(3-trifluoromethoxy-phenyl)-amide]] | 5.03
N#Cc1ccc(-c2cccc(NC(=O)[C@@H]3CCCN3C(=O)Nc3cn(C(N)=O)c4ccccc34)c2)cc1 [Example 152, (S)-pyrrolidine-1,2-dicarboxylic acid 1-[(1-carbamoyl-1H-indol-3-yl)amide]2-[(4′-cyano-biphenyl-3-yl)-amide]] | 5.36
COC(=O)c1cc(Br)cc(NC(=O)[C@@H]2C[C@@H](F)CN2C(=O)Nc2cn(C(N)=O)c3ccccc23)c1 [Example 153, 3-Bromo-5-{[(2S,4R)-1-(1-carbamoyl-1H-indol-3-ylcarbamoyl)-4-fluoro-pyrrolidine-2-carbamoyl]-amino}-benzoic acid methyl ester] | 7.26

From US9085555B2, “Complement pathway modulators and uses thereof” (priority 2011, dated 2015)
